Source: PMC11944514, “Dengue Virus Inhibitors as Potential Broad-Spectrum Flavivirus Inhibitors” (Pharmaceuticals, 2025)
pEC50: −log10 of the molar value. Entries after “also recorded” stand apart in the source; their conditions may differ.

Assays:
[1] = xCELLigence real-time cytotoxicity assay (RTCA), CC50; type: cell-based; settings: African green monkey, Vero E6 cells, 24 h of exposure
Procedure: As compounds C1, C2, and C3 were relatively toxic (Figure 2A), we determined the selectivity index (SI) of the identified potential broad-spectrum flavivirus inhibitors. As the WST-1 assay tends to underestimate the toxic effect and is unable to detect cytostatic effects, the CC50 of the perspective compounds was measured using a more sensitive xCELLigence real-time cytotoxicity assay (RTCA). […] The full xCELLigence RTCA data are provided in the Supporting Information section (Figures S2 and S3). Thereafter, for each compound, the SI was calculated as a ratio of the CC50 of a compound against its EC50 [36].
Vero E6 cells were seeded on a 16-well E-plate (ACEA Biosciences, Inc., San Diego, CA, USA ) at a density of 5 × 10^3 cells/well and allowed to adhere overnight. On the next day, the studied compounds were added at the final concentrations ranging from 0.078 μM to 5 μM with a two-fold dilution step for compounds C1, C2, and C3, and at the final concentrations ranging from 1.56 μM to 50 μM with a two-fold dilution step for compounds C5 and C6; 0.01% DMSO was used as a solvent control. The cells were incubated for 5 days, and the signals between the electrodes (impedance) were recorded using an RTCA xCELLigence machine (Agilent Technologies, Inc., Santa Clara, CA, USA). […] The CC50 values were calculated using GraphPad Prism 10.0 for Windows, GraphPad Software, v. 10.4.1, Boston, MA, USA, www.graphpad.com (accessed on 16 February 2025).

[2] = test system: DENV2-Nanoluc; experiment: microbe, parasite or virus in culture; type: cell-based; settings: for EC50: Dengue virus, DENV2, Vero C1008, read-out: DENV2 EC50, μM
[3] = test system: ZIKV-Nanoluc; experiment: microbe, parasite or virus in culture; type: cell-based; settings: for EC50: Zika virus, Vero C1008, read-out: ZIKV EC50, μM
[4] = test system: KUNV-Nanoluc; experiment: organism not typed; type: cell-based; settings: for EC50: Vero C1008, read-out: KUNV EC50, μM
[5] = test system: TBEV-Nanoluc; experiment: microbe, parasite or virus in culture; type: cell-based; settings: for EC50: Tick-borne encephalitis virus, Vero C1008, read-out: TBEV EC50, μM
[6] = test system: DENV2-Nanoluc replicon; type: cell-based
[7] = test system: ZIKV-Nanoluc replicon; type: cell-based
[8] = test system: KUNV-Nanoluc replicon; type: cell-based
[9] = test system: TBEV-Nanoluc replicon; type: cell-based
[10] = test system: WNV, DENV, and YFV; settings: cited from earlier work
[11] = test system: ZIKV; design: method as in PMID 32452420; settings: Vero E6 cells; read-out: EC50, inhibition of ZIKV replication; cited from earlier work
[12] = test system: Vero E6 cells; experiment: WST-1 cell viability assay, Vero E6; type: cell-based, African green monkey; settings: Vero E6, 48 h of exposure
Procedure: (§1) The cytotoxic effect of all studied compounds was assessed using the WST-1 assay after 48 h of exposure. […] This observation can be explained by the fact that the compound C8 is resazurin, phenoxazine dye, also known as Alamar Blue, which is subject to irreversible metabolic reduction to the resorufin by live mammalian cells. Thus, the cytotoxic effect of this compound cannot be assessed by the WST-1 assay correctly. Therefore, the C8 cytotoxicity was further assessed using the resazurin cell viability assay. This assay allowed us to avoid the interference between the tested compound and dye and obtain more reliable results for colored compounds.
(§2) Vero E6 or U2OS cells were seeded on the 96-well plate at a density of 1 × 10^4 cells/well and were allowed to adhere overnight. Next day, the cells were treated with the studied compounds at concentrations ranging from 1 to 100 μM with a ten-fold dilution step. As a solvent control, 0.01% DMSO (Sigma, St. Louis, MO, USA) was used. After 48 h of exposure, 10 μL of WST-1 (10 mg/mL) cell proliferation reagent (Roche, Cat. No. 11644807001) was added to each well, and plates were incubated at 37 °C, 5% CO2 for 2 h. The optical density was then measured at 450 nm using an Epoch Microplate Spectrophotometer (BioTek Instruments, Inc., Winooski, VT, USA). Four independent experiments were carried out in triplicates.

[13] = test system: Vero E6 cells; experiment: Resazurin cell viability assay, Vero E6; type: cell-based, African green monkey; settings: Vero E6, 48 h of exposure
Procedure: as §1
Vero E6 cells were seeded on a 96-well plate at a density of 1 × 10^4 cells/well and were allowed to adhere overnight. On the next day, the medium was replaced with a fresh complete growth medium containing the desired compound at final concentrations ranging from 1 μM to 100 μM with a ten-fold dilution step; 0.05% DMSO was used as a solvent control. […] Thereafter, the fluorescence was measured by a Synergy H1 Hybrid Multi-Mode Microplate Reader (BioTek Instruments, Inc., Winooski, VT, USA) using a 540 nm excitation and 590 nm emission filter. […]

[14] = test system: U2OS cells; experiment: WST-1 cell viability assay, U2OS; type: cell-based, human; settings: 48 h of exposure
Procedure: as §2

Compound | CC50 at 24 h [1] | antiviral effect against DENV2-Nanoluc (initial screening) [2] | EC50 [2] | antiviral effect against ZIKV-Nanoluc (initial screening) [3] | concentration at which a statistically significant antiviral effect appeared (ZIKV-Nanoluc) [3] | EC50 [3] | antiviral effect against KUNV-Nanoluc (initial screening) [4] | EC50 [4] | antiviral effect against TBEV-Nanoluc (initial screening) [5] | concentration at which the antiviral effect appeared (TBEV-Nanoluc) [5] | EC50 [5] | antiviral effect against DENV2-Nanoluc replicon [6] | antiviral effect against ZIKV-Nanoluc replicon [7] | antiviral effect against KUNV-Nanoluc replicon [8] | antiviral effect against TBEV-Nanoluc replicon [9] | reduction of viral titers of WNV, DENV, and YFV [10] | pEC50 [11] | cytotoxic effect (WST-1 assay) [12] | cytotoxic effect (resazurin cell viability assay) [13] | cytotoxic effect (WST-1 assay) [14]
O[C@H]1[C@H]2c3cc4c(cc3CN3CCC(=C[C@@H]1O)[C@H]23)OCO4 [Compound C1, (1S,17S,18S,19S)-5,7-dioxa-12-azapentacyclo[10.6.1.0^2,^10.0^4,^8.0^15,^19]nonadeca-2(10),3,8,15-tetraene-17,18-diol] | 1.3 µM | apparent dose-dependent antiviral effects | 0.09 µM | completely inhibited the ZIKV-Nanoluc replication at the maximum tested concentration | 0.2 µM | 0.13 µM | apparent dose-dependent antiviral effect | 0.17 µM | the ten-fold increase in concentration did not lead to any significant improvement of the antiviral effect | 0.2 µM | 0.09 µM | later addition (at 8 h post-transfection) of C1 had a lower antiviral effect compared to earlier | later addition (at 8 h post-transfection) of C1 had a lower antiviral effect compared to earlier | later addition (at 8 h post-transfection) of C1 had a lower antiviral effect compared to earlier | later addition (at 8 h post-transfection) of C1 had a lower antiviral effect compared to earlier | 10^2- to 10^4 fold | 6.41 |  |  | 
O=[N+]([O-])c1c(Nc2ccccc2O)cc(Cl)c2nonc12 [Compound C5, 2-[(7-chloro-4-nitro-2,1,3-benzoxadiazol-5-yl)amino]phenol] | 12.8 µM | apparent dose-dependent antiviral effects | 2.91 µM | at the 50 μM concentration, the virus activity was completely inhibited |  | 10.4 µM | decreased the KUNV-Nanoluc activity only at the maximum tested concentrations | 8.9 µM | clear dose-dependent antiviral effect |  | 9.88 µM |  |  |  |  |  |  | moderate cytotoxic effect at 50 μM |  | 
O=c1ccc2[n+]([O-])c3ccc([O-])cc3oc-2c1.[Na+] [Compound C8, sodium 3-oxo-3H-phenoxazin-10-ium-7,10-bis(olate)] | > 50 µM | negligible inhibition effect at the maximum tested concentration; also recorded: no antiviral effect against DENV2-Nanoluc in the tested concentrations range |  |  |  |  |  |  | partially inhibit viral replication at the minimal tested concentration without an apparent dose-dependent effect |  |  |  |  |  |  |  |  | inverse dose-dependent effect | no cytotoxic effect | 
Nc1nc(N)c2c(Oc3ccc(F)cc3)cccc2n1 [Compound C4, 5-(4-fluorophenoxy)quinazoline-2,4-diamine] | > 0.2 µM | negligible inhibition effect at the maximum tested concentration |  | some tendency to decrease the ZIKV-Nanoluc activity at a concentration of 2 μM |  |  |  |  | partially inhibit viral replication at the minimal tested concentration without an apparent dose-dependent effect |  |  |  |  |  |  |  |  |  |  | 
Nc1ncnc2c1ncn2C1OC(CO)C(O)C1O (stereo not shown) [Compound C7, 2-(6-amino-9H-purin-9-yl)-5-(hydroxymethyl)oxolane-3,4-diol] | > 50 µM |  |  |  |  |  | slight inhibition effect was observed for compound C7 at the 50 μM concentration |  | clear dose-dependent antiviral effect |  | 8.33 µM | slight inhibition effect against DENV2-Nanoluc if it was added at 1 h post-transfection; also recorded: inactive against all studied flavivirus replicons at the maximal non-toxic concentration | inactive against all studied flavivirus replicons at the maximal non-toxic concentration | inactive against all studied flavivirus replicons at the maximal non-toxic concentration | no inhibition of TBEV replication was observed; also recorded: inactive against all studied flavivirus replicons at the maximal non-toxic concentration |  |  | no cytotoxic effect at the maximal tested concentration |  | more toxic for the U2OS cells at the maximum tested concentration than in the Vero E6 cells
